Values joined by “and” are separate entries in the source; they are usually repeats but may differ in a detail not shown here. Identical values can stand only once. Like-named read-outs stand apart in the source and are kept apart here.
Assays:
[1] = target: T1, Rat2 fibroblasts stably transformed with v-Src/Hu Lck fusion gene (Homo sapiens, UniProt P06239, cells depend on it, form not given); experiment: Anchorage independent Lck-transformed fibroblast proliferation assay; assay type: cell-based, rat
T1 construct: Candidates are e.g. Schmidt-Ruppin A (P00524) or Prague C (P00526); The human Lck catalytic domain stands in place of the v-Src catalytic domain
T1 sequence (P06239 whole entry, change not shown, the tested form may be a part): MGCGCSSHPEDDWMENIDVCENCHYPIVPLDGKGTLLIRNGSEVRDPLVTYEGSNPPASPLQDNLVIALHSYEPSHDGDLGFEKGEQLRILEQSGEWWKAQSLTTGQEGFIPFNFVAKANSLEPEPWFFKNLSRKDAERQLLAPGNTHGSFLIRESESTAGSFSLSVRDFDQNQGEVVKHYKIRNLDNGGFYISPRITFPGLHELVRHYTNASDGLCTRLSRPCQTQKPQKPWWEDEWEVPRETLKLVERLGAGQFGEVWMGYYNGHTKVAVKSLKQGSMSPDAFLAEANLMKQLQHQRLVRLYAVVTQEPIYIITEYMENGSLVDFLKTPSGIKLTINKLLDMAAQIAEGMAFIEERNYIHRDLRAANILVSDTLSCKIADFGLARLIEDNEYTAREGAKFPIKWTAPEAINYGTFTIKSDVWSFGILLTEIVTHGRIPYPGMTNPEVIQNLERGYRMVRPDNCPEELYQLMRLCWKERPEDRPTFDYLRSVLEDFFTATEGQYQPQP
Description: Anchorage Independent Lck-Transformed Fibroblast Proliferation Assay
Rat2 fibroblasts stably transformed with a plasmid containing a CMV promotor controlled v-Src/Hu Lck fusion gene in which the catalytic domain of human Lck was inserted in place of the v-Src catalytic domain in the v-Src gene are used for the measurement of src dependent suspension growth. Ultra-low cluster plates (Costar # 3474) are seeded with 10,000 cells per well on Day 1. Compound is added in serial two-fold dilutions from 10 micromolar to 0.009 micromolar on Day 2 and MTS reagent (Promega) is added on Day 5 (100 microliters of MTS/medium mix+100 microliters of medium already on the cells and the absorbance is measured at 490 nm. The results are analyzed as follows to yield an IC50 for proliferation (micromolar units) as follow: % inhibition=(Abs490 nm sample−blank)/(Abs490 nm no cmpd control−blank)×100%. The results obtained for representative compounds of this invention are listed in Table 2. Multiple entries for a given compound indicate that it was tested multiple times.

[2] = test system: Rat2 fibroblasts stably transformed with v-Src/Hu c-Src fusion gene; experiment: Anchorage independent Src-transformed fibroblast proliferation assay; assay type: cell-based, rat; conditions: for inhibition at 100 µM: Rat2, Table 1, read-out: Src cells % inh at 100 μM
Description: Anchorage Independent Src-Transformed Fibroblast Proliferation Assay Rat2 fibroblasts stably transformed with a plasmid containing a CMV promotor controlled v-Src/Hu c-Src fusion gene in which the catalytic domain of human c-Src was inserted in place of the v-Src catalytic domain in the v-Src gene are used for the measurement of src dependent suspension growth. […] Multiple entries for a given compound indicate that it was tested multiple times.

[3] = Table 3, read-out: Lck Cells IC50
[4] = Table 3, read-out: Src Cells IC50 μM or % inhib at 10 μM (IC50 values)
[5] = Table 2, suspension growth, MTS readout Day 5, read-out: Lck cells IC50
[6] = Rattus norvegicus, Rat2, Table 3, read-out: Src Cells IC50 μM or % inhib at 10 μM (IC50 values)

In the case of “7-[(2,4-dichloro-5-methoxyphenyl)amino]-2-{4-[(4-pyrrolidin-1-ylpiperidin-1-yl)methyl]phenyl}thieno[3,2-b]pyridine-6-carbonitrile [Example 71]”, the GI50 [1, 3] is reported as 200 nM and 110 nM and the IC50 [2, 4] is reported as 1.6 µM and 0.9 µM.

With `COc1cc(Nc2c(C#N)cnc3cc(-c4ccc(CN5CCOCC5)cc4)sc23)c(Cl)cc1Cl` [Example 15, 7-[(2,4-Dichloro-5-methoxyphenyl)amino]-2-[4-(4-morpholinylmethyl)phenyl]thieno[3,2-b]pyridine-6-carbonitrile] the GI50 [1, 5] was 350 nM and the melting point was 244 to 245 °C.

With `COc1cc(Nc2c(C#N)cnc3cc(-c4csc(CN5CCN(C)CC5)c4)sc23)c(Cl)cc1Cl` [Example 38, 7-[(2,4-Dichloro-5-methoxyphenyl)amino]-2-{5-[(4-methylpiperazin-1-yl)methyl]thien-3-yl}thieno[3,2-b]pyridine-6-carbonitrile] the GI50 [1, 5] was 170 nM and 180 nM and 130 nM and the melting point was 224 to 226 °C.

Work on `COc1cc(Nc2c(C#N)cnc3cc(-c4ccc(C=O)cc4)sc23)cc(OC)c1OC` [Example 55, 2-(4-Formylphenyl)-7-[(3,4,5-trimethoxyphenyl)amino]thieno[3,2-b]pyridine-6-carbonitrile] yielded a melting point of 268 to 270 °C and an inhibition at 100 µM ([2]; Rattus norvegicus) of 97%.

`COc1cc(Nc2c(C#N)cnc3cc(/C=C/C(=O)N4CCN(C)CC4)sc23)c(Cl)cc1Cl` [Example 56, 7-[(2,4-Dichloro-5-methoxyphenyl)amino]-2-[(1E)-3-(4-methylpiperazin-1-yl)-3-oxoprop-1-enyl]thieno[3,2-b]pyridine-6-carbonitrile] gave a melting point of 218 to 220 °C, an IC50 ([2]; Rattus norvegicus, Rat2, 120 h, Table 1, suspension growth, MTS readout Day 5, read-out: Src cells IC50) of 3.93 µM and an IC50 ([2]; Table 1, suspension growth, MTS readout Day 5, read-out: Src cells IC50) of 2.2 µM.

For `COc1cc(Nc2c(C#N)cnc3cc(C#CCN4CCN(C)CC4)sc23)cc(OC)c1OC` [Example 57, 2-[3-(4-Methylpiperazin-1-yl)prop-1-ynyl]-7-[(3,4,5-trimethoxyphenyl)amino]thieno[3,2-b]pyridine-6-carbonitrile], the melting point was 180 to 182 °C and the inhibition at 100 µM ([2]; Rattus norvegicus) was 70%.

With `COc1cc(Nc2c(C#N)cnc3cc(-c4ccc(CN(C)C)cc4)sc23)c(Cl)cc1Cl` [Example 62, 7-[(2,4-Dichloro-5-methoxyphenyl)amino]-2-{4-[(dimethylamino)methyl]phenyl}thieno[3,2-b]pyridine-6-carbonitrile] the GI50 [1, 5] was 79 nM and the melting point was 224 to 225 °C.

With `COc1cc(Nc2c(C#N)cnc3cc(C#Cc4cnn(CCN5CCOCC5)c4)sc23)c(Cl)cc1Cl` [Example 65, 7-[(2,4-Dichloro-5-methoxyphenyl)amino]-2-{[1-(2-morpholin-4-ylethyl)-1H-pyrazol-4-yl]ethynyl}thieno[3,2-b]pyridine-6-carbonitrile] the GI50 [1, 3] was > 10000 nM and the IC50 [2, 6] was 0.7 µM.

With `COc1cc(Nc2c(C#N)cnc3cc(-c4ccc(C=O)o4)sc23)c(Cl)cc1Cl` [Example 67, 7-[(2,4-dichloro-5-methoxyphenyl)amino]-2-(5-formyl-2-furyl)thieno[3,2-b]pyridine-6-carbonitrile] the GI50 [1, 3] was 1500 nM and 1700 nM and the IC50 [2, 6] was 3.7 µM.

For `COc1cc(Nc2c(C#N)cnc3cc(-c4cccc(CN5CCN(C)CC5)c4)sc23)c(Cl)cc1Cl` [Example 74, 7-[(2,4-dichloro-5-methoxyphenyl)amino]-2-{3-[(4-methylpiperazin-1-yl)methyl]phenyl}thieno[3,2-b]pyridine-6-carbonitrile], the GI50 [1, 3] was 600 nM and 510 nM and the melting point was 178 to 180 °C.

With `COc1cc(Nc2c(C#N)cnc3cc(-c4ccc(C=O)s4)sc23)c(Cl)cc1Cl` [Example 79, 7-[(2,4-dichloro-5-methoxyphenyl)amino]-2-(5-formylthien-2-yl)thieno[3,2-b]pyridine-6-carbonitrile] the GI50 [1, 3] was 1500 nM and 1600 nM, the IC50 [2, 6] was 2.4 µM and the IC50 [2, 4] was 2.8 µM.

With `COc1cc(Nc2c(C#N)cnc3cc(-c4ccc(CN5CCN(C)CC5)s4)sc23)c(Cl)cc1Cl` [Example 81, 7-[(2,4-dichloro-5-methoxyphenyl)amino]-2-{5-[(4-methylpiperazin-1-yl)methyl]thien-2-yl}thieno[3,2-b]pyridine-6-carbonitrile] the GI50 [1, 3] was 180 nM and 220 nM and the melting point was 200 to 202 °C.

With `COc1cc(Nc2c(C#N)cnc3cc(-c4ccc(CN(C)CCCN(C)C)cc4)sc23)c(Cl)cc1Cl` [Example 85, 7-[(2,4-dichloro-5-methoxyphenyl)amino]-2-(4-{[[3-(dimethylamino)propyl](methyl)amino]methyl}phenyl)thieno[3,2-b]pyridine-6-carbonitrile] the GI50 [1, 3] was 500 nM, the IC50 [2, 6] was 3.3 µM and the IC50 [2, 4] was 3.16 µM.

For `COc1cc(Nc2c(C#N)cnc3cc(C#Cc4cccc(CN(C)C)n4)sc23)c(Cl)cc1Cl` [Example 87, 7-[(2,4-dichloro-5-methoxyphenyl)amino]-2-({6-[(dimethylamino)methyl]pyridin-2-yl}ethynyl)thieno[3,2-b]pyridine-6-carbonitrile], the GI50 [1, 3] was 1000 nM and 1850 nM and the melting point was 190 to 191 °C.

For `COc1cc(Nc2c(C#N)cnc3cc(-c4cc[nH]c4)sc23)c(Cl)cc1Cl` [Example 90, 7-[(2,4-dichloro-5-methoxyphenyl)amino]-2-(1H-pyrrol-3-yl)thieno[3,2-b]pyridine-′6-carbonitrile], the GI50 [1, 3] was 2700 nM and 2400 nM and the IC50 [2, 4] was 2.6 µM and 3.1 µM.

In the case of `COc1cc(Nc2c(C#N)cnc3cc(C#Cc4cn[nH]c4)sc23)c(Cl)cc1Cl` [Example 101, 7-[(2,4-dichloro-5-methoxyphenyl)amino]-2-(1H-pyrazol-4-ylethynyl)thieno[3,2-b]pyridine-6-carbonitrile], the GI50 [1, 3] is reported as 938 nM and 804 nM, the IC50 [2, 6] is reported as 0.804 µM and the IC50 [2, 4] is reported as 0.81 µM.

With `COc1cc(Nc2c(C#N)cnc3cc(-c4ccc(CN5C[C@H](C)NC[C@H]5C)cc4)sc23)c(Cl)cc1Cl` [Example 114, 7-[(2,4-dichloro-5-methoxyphenyl)amino]-2-(4{[(2R,5S)-2,5-dimethylpiperazin-1-I]methyl}phenyl)thieno[3,2-b]pyridine-6-carbonitrile] the GI50 [1, 3] was 156 nM and 174 nM.

With `COc1cc(Nc2c(C#N)cnc3cc(-c4ccc(CN5CCN(Cc6ccccn6)CC5)cc4)sc23)c(Cl)cc1Cl` [Example 124, 7-[(2,4-dichloro-5-methoxyphenyl)amino]-2-(4-{[4-(pyridin-2-ylmethyl)piperazin-1-yl]methyl}phenyl)thieno[3,2-b]pyridine-6-carbonitrile] the melting point was 105 to 107 °C, the IC50 [2, 6] was 0.914 µM and the IC50 [2, 4] was 0.576 µM.

In the case of `COc1cc(Nc2c(C#N)cnc3cc(-c4ccn(CCN(C)C)c4)sc23)c(Cl)cc1Cl` [Example 125, 7-[(2,4-dichloro-5-methoxyphenyl)amino]-2-{1-[2-(dimethylamino)ethyl]-1H-pyrrol-3-yl}thieno[3,2-b]pyridine-6-carbonitrile], the GI50 [1, 3] is reported as > 10000 nM and 5800 nM and the IC50 [2, 6] is reported as > 10 µM.

In the case of `COc1cc(Nc2c(C#N)cnc3cc(C#Cc4cncn4C)sc23)c(Cl)cc1Cl` [Example 127, 7-[(2,4-dichloro-5-methoxyphenyl)amino]-2-[(1-methyl-1H-imidazol-5-yl)ethynyl]thieno[3,2-b]pyridine-6-carbonitrile], the GI50 [1, 3] is reported as > 10000 nM and the “Src Cells IC50 μM or % inhib at 10 μM (% values)” value ([2]; Table 3, at 10 μM) is reported as 0% and 9%.

With `COc1cc(Nc2c(C#N)cnc3cc(-c4cn[nH]c4)sc23)c(Cl)cc1Cl` [Example 129, 7-[(2,4-dichloro-5-methoxyphenyl)amino]-2-(1 H-pyrazol-4-yl)thieno[3,2-b]pyridine-6-carbonitrile] the GI50 [1, 3] was 1460 nM and 1400 nM, the IC50 [2, 6] was 3.23 µM and the IC50 [2, 4] was 2.19 µM.

With `COc1cc(Nc2c(C#N)cnc3cc(C#Cc4cnn(CCO)c4)sc23)c(Cl)cc1Cl` [Example 130, 7-[(2,4-dichloro-5-methoxyphenyl)amino]-2-{[1-(2-hydroxyethyl)-1H-pyrazol-4-yl]ethynyl}thieno[3,2-b]pyridine-6-carbonitrile] the GI50 [1, 3] was 3640 nM and 4070 nM, the IC50 [2, 6] was 5.59 µM and the IC50 [2, 4] was 3.2 µM.

With `COc1cc(Nc2c(C#N)cnc3cc(-c4cnn(CCN5CCOCC5)c4)sc23)c(Cl)cc1Cl` [Example 131, 7-[(2,4-dichloro-5-methoxyphenyl)amino]-2-[1-(2-morpholin-4-ylethyl)-1H-pyrazol-4-yl]thieno[3,2-b]pyridine-6-carbonitrile] the GI50 [1, 3] was > 10000 nM, the inhibition at 10 µM ([2]; Rattus norvegicus, Rat2, Table 3, at 10 μM, read-out: Src Cells IC50 μM or % inhib at 10 μM (% values)) was 16% and the “Src Cells IC50 μM or % inhib at 10 μM (% values)” value ([2]; Table 3, at 10 μM) was 17%.

In the case of `COc1cc(Nc2c(C#N)cnc3cc(-c4ccc(CN(C)C)cn4)sc23)c(Cl)cc1Cl` [Example 132, 7-[(2,4-dichloro-5-methoxyphenyl)amino]-2-{5-[(dimethylamino)methyl]pyridin-2-yl}thieno[3,2-b]pyridine-6-carbonitrile], the GI50 [1, 3] is reported as 112 nM and 96 nM.
